This is an account of results in paper PMC2655646, “A Conserved Mechanism for Control of Human and Mouse Embryonic Stem Cell Pluripotency and Differentiation by Shp2 Tyrosine Phosphatase” (PLoS ONE, 2009).

One assay has as its target T1, Shp1 (Mus musculus, UniProt P29351).
T1 construct: gene Ptpn6; GST-tagged PTP domain
T1 sequence (P29351 244-515 limits assumed): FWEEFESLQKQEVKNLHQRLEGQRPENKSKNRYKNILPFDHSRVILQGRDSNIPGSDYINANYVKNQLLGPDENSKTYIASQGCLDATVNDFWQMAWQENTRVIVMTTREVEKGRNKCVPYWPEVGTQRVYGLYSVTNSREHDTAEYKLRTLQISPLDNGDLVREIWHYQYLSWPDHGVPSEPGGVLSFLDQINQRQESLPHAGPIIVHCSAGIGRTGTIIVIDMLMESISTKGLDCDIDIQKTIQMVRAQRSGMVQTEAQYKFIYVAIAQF
Briefly: phosphatase inhibition assay with purified GST-PTP domain. The class given is biochemical.

The target of another assay is T2, Shp2 (Mus musculus, UniProt P35235).
T2 construct: gene Ptpn11; GST-tagged PTP domain
T2 sequence (P35235 247-521 limits assumed): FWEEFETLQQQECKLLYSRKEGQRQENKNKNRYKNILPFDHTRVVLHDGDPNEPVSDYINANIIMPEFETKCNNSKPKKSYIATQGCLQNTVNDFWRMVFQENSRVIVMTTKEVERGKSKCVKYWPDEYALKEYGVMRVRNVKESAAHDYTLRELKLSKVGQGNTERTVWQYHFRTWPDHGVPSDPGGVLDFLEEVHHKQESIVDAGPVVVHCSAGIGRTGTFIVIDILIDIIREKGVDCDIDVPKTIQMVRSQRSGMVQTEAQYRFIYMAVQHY
Briefly: pNPP phosphatase assay with purified GST-PTP domain, absorbance at […] nm; Ki also determined ([…]). The class given is biochemical.

The IC50 is the concentration needed to halve the response being measured. A higher IC50 goes with weaker potency in that assay.

In the case of `O=C(O)c1cc(O)c(=O)c2c(O)c(O)ccc2c1` [DCA, 7-deshydroxypyrogallin-4-carboxylic acid], the IC50 was 2.3 µM at Shp1 and 2.1 µM against Shp2.
